The NIST ThermoML archive (doi:10.1021/je401015e)

Conditions: Liquid; for mass density: Buoyancy - hydrostatic balance with magnetic suspension - one sinker

C=CCCCC [hex-1-ene]
Conditions | mass density [kg/m3] | viscosity [mPa·s]
298.15 K, 98 kPa | 669.71 | 0.271
298.15 K, 24510 kPa | 696.93 | 0.337
298.15 K, 49030 kPa | 714.95 | 0.415
298.15 K, 98060 kPa | 744.22 | 0.55
298.15 K, 147100 kPa | 763.36 | 0.705
298.15 K, 196130 kPa | 778.91 | 0.876
298.15 K, 245160 kPa | 793.17 | 1.093
303.15 K, 98 kPa | 664.87 | 0.256
303.15 K, 24510 kPa | 690.93 | 0.321
303.15 K, 49030 kPa | 711.55 | 0.395
303.15 K, 98060 kPa | 741.4 | 0.525
303.15 K, 147100 kPa | 761.37 | 0.67
303.15 K, 196130 kPa | 776.19 | 0.84
303.15 K, 245160 kPa | 791.19 | 1.034
312.92 K, 98 kPa | 655.77 | 0.232
325.17 K, 98 kPa | 644.12 | 0.21
325.99 K, 98060 kPa | 729.28 | 0.442
326 K, 24510 kPa | 675.1 | 0.274
326.02 K, 49030 kPa | 694.93 | 0.328
326.05 K, 147100 kPa | 750.05 | 0.561
326.12 K, 196130 kPa | 767.98 | 0.694
326.15 K, 245160 kPa | 783.2 | 0.836
364.25 K, 245160 kPa | 767.68 | 0.628
364.63 K, 196130 kPa | 751.74 | 0.54
364.69 K, 49030 kPa | 670.17 | 0.254
364.73 K, 24510 kPa | 645.55 | 0.214
364.75 K, 98060 kPa | 706.69 | 0.346
364.83 K, 147100 kPa | 731.74 | 0.437
398.25 K, 147100 kPa | 715.97 | 0.363
398.35 K, 245160 kPa | 753.74 | 0.516
398.37 K, 196130 kPa | 736.05 | 0.444
398.43 K, 24510 kPa | 618.11 | 0.17
398.78 K, 98060 kPa | 687.13 | 0.287
398.87 K, 49030 kPa | 645.8 | 0.211
422.37 K, 245160 kPa | 743.17 | 0.456
422.71 K, 196130 kPa | 726.21 | 0.389
422.74 K, 147100 kPa | 703.54 | 0.319
422.9 K, 98060 kPa | 672.81 | 0.252
423.1 K, 49030 kPa | 630.04 | 0.184
423.18 K, 24510 kPa | 598.39 | 0.146
452.77 K, 24510 kPa | 575.45 | 0.124
453.14 K, 49030 kPa | 608.12 | 0.16
453.14 K, 196130 kPa | 712.63 | 0.338
453.19 K, 98060 kPa | 656.91 | 0.218
453.28 K, 147100 kPa | 687.84 | 0.277
453.52 K, 245160 kPa | 732.58 | 0.397
471.55 K, 196130 kPa | 704.21 | 0.315
471.64 K, 245160 kPa | 725.42 | 0.371
471.73 K, 49030 kPa | 598.79 | 0.15
471.78 K, 98060 kPa | 646.27 | 0.204
471.92 K, 24510 kPa | 560.56 | 0.115
472.02 K, 147100 kPa | 680.82 | 0.26

C=CCCCCC [1-heptene]
Conditions | mass density [kg/m3] | viscosity [mPa·s]
298.15 K, 98 kPa | 694.51 | 0.362
298.15 K, 24510 kPa | 718.23 | 0.451
298.15 K, 49030 kPa | 734.7 | 0.544
298.15 K, 98060 kPa | 765.58 | 0.739
298.15 K, 147100 kPa | 783.57 | 0.942
298.15 K, 196130 kPa | 800.85 | 1.226
298.15 K, 245160 kPa | 816.79 | 1.499
303.15 K, 98 kPa | 689.57 | 0.346
303.15 K, 24510 kPa | 715 | 0.431
303.15 K, 49030 kPa | 733.1 | 0.52
303.15 K, 98060 kPa | 761.82 | 0.706
303.15 K, 147100 kPa | 780.46 | 0.903
303.15 K, 196130 kPa | 797.46 | 1.162
303.15 K, 245160 kPa | 815.3 | 1.429
312.83 K, 98 kPa | 680.92 | 0.314
322.39 K, 98 kPa | 672.17 | 0.288
327.47 K, 24510 kPa | 697.97 | 0.351
327.48 K, 98060 kPa | 746.71 | 0.575
327.49 K, 98 kPa | 668.07 | 0.278
327.49 K, 49030 kPa | 718.4 | 0.429
327.63 K, 147100 kPa | 767.87 | 0.741
327.63 K, 196130 kPa | 786.42 | 0.925
327.67 K, 245160 kPa | 805.58 | 1.136
340.21 K, 98 kPa | 655.95 | 0.251
354.73 K, 98 kPa | 643.5 | 0.224
359.63 K, 245160 kPa | 791.61 | 0.883
359.74 K, 147100 kPa | 750.76 | 0.587
359.75 K, 196130 kPa | 773.85 | 0.726
359.87 K, 98060 kPa | 730.37 | 0.457
359.96 K, 49030 kPa | 699.31 | 0.34
360.03 K, 98 kPa | 638.93 | 0.215
360.06 K, 24510 kPa | 672.86 | 0.278
392.4 K, 245160 kPa | 776.73 | 0.709
392.46 K, 196130 kPa | 758.9 | 0.591
392.61 K, 147100 kPa | 734.09 | 0.48
392.68 K, 49030 kPa | 676.29 | 0.277
392.74 K, 98060 kPa | 714.89 | 0.377
392.79 K, 24510 kPa | 646.48 | 0.226
423.82 K, 196130 kPa | 745.35 | 0.489
424.04 K, 147100 kPa | 717.45 | 0.4
424.07 K, 245160 kPa | 760.78 | 0.574
424.11 K, 24510 kPa | 619.97 | 0.182
424.17 K, 49030 kPa | 653.79 | 0.226
424.17 K, 98060 kPa | 697.03 | 0.311
452.22 K, 196130 kPa | 733.49 | 0.434
452.25 K, 98060 kPa | 676.86 | 0.28
452.27 K, 245160 kPa | 750.38 | 0.503
452.28 K, 147100 kPa | 702.95 | 0.355
452.34 K, 49030 kPa | 628.89 | 0.198
452.35 K, 24510 kPa | 595.84 | 0.16
473.28 K, 196130 kPa | 723.12 | 0.407
473.33 K, 147100 kPa | 692.3 | 0.333
473.35 K, 245160 kPa | 737.15 | 0.47
473.47 K, 98060 kPa | 665.45 | 0.262
473.56 K, 49030 kPa | 612.5 | 0.183
473.7 K, 24510 kPa | 578.48 | 0.148
